In patent US12201640B2, “19-nor C3,3-disubstituted C21-n-pyrazolyl steroids and methods of use thereof” (Sage Therapeutics, Inc., priority 2013, dated 2025):

Legend:
GABAA receptor α4β3δ = biological target: T1, GABAA receptor α4β3δ (Homo sapiens, UniProt P28472+P48169); experiment: Patch clamp electrophysiology, manual patch in CHO cells; format: cell-based; details: 10 μM test article, GABA EC20 2 μM, read-out: GABA (α4β3δ) Manual patch in CHO, % efficacy at 10 μM
T1 construct: expressed in transfected cells; host or cells: CHO cells (transient, lipofection)
T1 sequence (P48169 36-554): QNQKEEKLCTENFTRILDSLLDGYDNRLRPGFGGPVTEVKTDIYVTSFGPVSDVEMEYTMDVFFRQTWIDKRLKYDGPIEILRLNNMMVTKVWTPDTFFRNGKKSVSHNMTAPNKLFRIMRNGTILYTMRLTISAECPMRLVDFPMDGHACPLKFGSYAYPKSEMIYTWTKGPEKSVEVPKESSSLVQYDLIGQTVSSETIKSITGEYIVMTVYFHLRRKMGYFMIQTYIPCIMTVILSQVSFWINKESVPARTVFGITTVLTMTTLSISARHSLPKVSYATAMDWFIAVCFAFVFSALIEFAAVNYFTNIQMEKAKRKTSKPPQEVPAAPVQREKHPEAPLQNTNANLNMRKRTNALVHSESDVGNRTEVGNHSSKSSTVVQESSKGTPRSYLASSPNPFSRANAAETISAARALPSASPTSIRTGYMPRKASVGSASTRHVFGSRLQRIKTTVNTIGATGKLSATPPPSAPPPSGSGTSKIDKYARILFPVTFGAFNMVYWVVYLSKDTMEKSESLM
T1 sequence (P28472 26-473): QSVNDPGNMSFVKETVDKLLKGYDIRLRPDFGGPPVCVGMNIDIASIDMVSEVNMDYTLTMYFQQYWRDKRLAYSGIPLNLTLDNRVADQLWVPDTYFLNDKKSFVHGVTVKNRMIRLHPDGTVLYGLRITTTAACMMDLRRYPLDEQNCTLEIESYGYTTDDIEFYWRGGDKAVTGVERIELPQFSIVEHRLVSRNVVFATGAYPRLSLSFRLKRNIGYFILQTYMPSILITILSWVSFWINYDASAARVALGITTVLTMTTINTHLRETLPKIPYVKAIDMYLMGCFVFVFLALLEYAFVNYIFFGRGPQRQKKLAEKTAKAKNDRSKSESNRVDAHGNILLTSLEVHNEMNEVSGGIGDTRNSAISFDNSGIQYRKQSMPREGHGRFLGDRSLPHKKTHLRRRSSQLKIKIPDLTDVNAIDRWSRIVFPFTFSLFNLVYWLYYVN
T1 sequence (O14764 25-452 partner): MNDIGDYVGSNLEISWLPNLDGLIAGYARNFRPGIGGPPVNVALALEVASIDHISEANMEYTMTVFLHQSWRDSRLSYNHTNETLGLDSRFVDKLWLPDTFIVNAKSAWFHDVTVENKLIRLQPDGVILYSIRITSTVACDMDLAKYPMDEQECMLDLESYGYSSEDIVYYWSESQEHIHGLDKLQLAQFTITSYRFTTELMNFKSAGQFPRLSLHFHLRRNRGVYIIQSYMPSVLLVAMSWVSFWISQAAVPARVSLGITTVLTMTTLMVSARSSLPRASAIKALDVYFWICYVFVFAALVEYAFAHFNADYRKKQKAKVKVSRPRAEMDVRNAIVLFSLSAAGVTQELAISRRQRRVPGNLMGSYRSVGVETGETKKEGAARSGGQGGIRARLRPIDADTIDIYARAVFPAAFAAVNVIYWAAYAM
Description: (§1) Patch Clamp Electrophysiology of Recombinant α1β2γ2 and α4β3δ GABAA Receptors
(§2) Cellular electrophysiology is used to measure the pharmacological properties of our GABAA receptor modulators in heterologous cell systems. Each compound is tested for its ability to affect GABA mediated currents at a submaximal agonist dose (GABA EC20=2 μM). LTK cells are stably transfected with the α1β2γ2 subunits of the GABA receptor and CHO cells are transiently transfected with the α4β3δ subunits via the Lipofecatamine method. Cells were passaged at a confluence of about 50-80% and then seeded onto 35 mm sterile culture dishes containing 2 ml culture complete medium without antibiotics or antimycotics. Confluent clusters of cells are electrically coupled (Pritchett et al., Science, 1988, 242, 1306-1308.). Because responses in distant cells are not adequately voltage clamped and because of uncertainties about the extent of coupling (Verdoorn et al., Neuron 1990, 4, 919-928.), cells were cultivated at a density that enables the recording of single cells (without visible connections to other cells).
(§3) Whole cell currents were measured with HEKA EPC-10 amplifiers using PatchMaster software or by using the high throughput QPatch platform (Sophion). Bath solution for all experiments contained (in mM): NaCl 137 mM, KCl 4 mM, CaCl2 1.8 mM, MgCl2 1 mM, HEPES 10 mM, D-Glucose 10 mM, pH (NaOH) 7.4. In some cases 0.005% cremophor was also added. Intracellular (pipette) solution contained: KCl 130 mM, MgCl2 1 mM, Mg-ATP 5 mM, HEPES 10 mM, EGTA 5 mM, pH 7.2. During experiments, cells and solutions were maintained at room temperature (19° C.-30° C.). For manual patch clamp recordings, cell culture dishes were placed on the dish holder of the microscope and continuously perfused (1 ml/min) with bath solution. After formation of a Gigaohm seal between the patch electrodes and the cell (pipette resistance range: 2.5 MΩ-6.0 MΩ; seal resistance range: >1 GΩ) the cell membrane across the pipette tip was ruptured to assure electrical access to the cell interior (whole-cell patch-configuration). For experiments using the QPatch system, cells were transferred as suspension to the QPatch system in the bath solution and automated whole cell recordings were performed.
(§4) Cells were voltage clamped at a holding potential of −80 mV. For the analysis of test articles, GABA receptors were stimulated by 2 μM GABA after sequential pre-incubation of increasing concentrations of the test article. Pre-incubation duration was 30 s and the duration of the GABA stimulus was 2 s. Test articles were dissolved in DMSO to form stock solutions (10 mM). Test articles were diluted to 0.01, 0.1, 1, and 10 μM in bath solution. All concentrations of test articles were tested on each cell. The relative percentage potentiation was defined as the peak amplitude in response to GABA EC20 in the presence of the test article divided by the peak amplitude in response to GABA EC20 alone, multiplied by 100.

GABAA receptor α1β2γ2 = biological target: T2, GABAA receptor α1β2γ2 (Homo sapiens, UniProt P14867+P47870); experiment: Patch clamp electrophysiology, Qpatch in Ltk cells; format: cell-based; details: 10 μM test article, GABA EC20 2 μM, read-out: GABA (α1β2γ2) Qpatch in Ltk, % efficacy at 10 μM
T2 construct: expressed in transfected cells
T2 sequence (P14867 28-456): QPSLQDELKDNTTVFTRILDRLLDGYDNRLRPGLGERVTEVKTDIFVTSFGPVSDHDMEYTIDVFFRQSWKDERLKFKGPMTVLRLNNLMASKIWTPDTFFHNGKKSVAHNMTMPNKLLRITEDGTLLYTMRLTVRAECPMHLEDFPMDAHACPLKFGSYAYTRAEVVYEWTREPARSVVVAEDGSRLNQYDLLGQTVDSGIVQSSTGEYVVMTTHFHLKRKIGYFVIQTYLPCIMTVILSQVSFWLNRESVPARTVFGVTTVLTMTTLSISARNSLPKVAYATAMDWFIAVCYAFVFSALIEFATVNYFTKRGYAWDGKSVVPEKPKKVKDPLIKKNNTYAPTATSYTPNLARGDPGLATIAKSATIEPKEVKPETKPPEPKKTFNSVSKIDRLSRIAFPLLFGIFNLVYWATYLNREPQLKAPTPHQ
T2 sequence (P47870 25-512 limits assumed): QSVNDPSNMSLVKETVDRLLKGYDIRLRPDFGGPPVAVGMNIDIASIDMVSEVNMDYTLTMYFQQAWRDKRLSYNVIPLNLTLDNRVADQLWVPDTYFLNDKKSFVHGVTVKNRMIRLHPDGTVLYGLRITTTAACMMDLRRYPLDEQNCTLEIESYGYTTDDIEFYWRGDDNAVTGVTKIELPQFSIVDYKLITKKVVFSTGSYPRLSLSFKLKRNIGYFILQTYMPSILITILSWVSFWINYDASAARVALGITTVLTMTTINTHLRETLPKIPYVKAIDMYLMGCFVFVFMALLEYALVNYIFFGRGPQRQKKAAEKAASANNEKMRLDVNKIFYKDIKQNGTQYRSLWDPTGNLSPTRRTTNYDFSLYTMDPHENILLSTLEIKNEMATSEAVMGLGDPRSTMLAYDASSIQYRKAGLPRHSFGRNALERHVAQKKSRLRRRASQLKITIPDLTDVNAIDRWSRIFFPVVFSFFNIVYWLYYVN
T2 sequence (P18507 40-475 partner): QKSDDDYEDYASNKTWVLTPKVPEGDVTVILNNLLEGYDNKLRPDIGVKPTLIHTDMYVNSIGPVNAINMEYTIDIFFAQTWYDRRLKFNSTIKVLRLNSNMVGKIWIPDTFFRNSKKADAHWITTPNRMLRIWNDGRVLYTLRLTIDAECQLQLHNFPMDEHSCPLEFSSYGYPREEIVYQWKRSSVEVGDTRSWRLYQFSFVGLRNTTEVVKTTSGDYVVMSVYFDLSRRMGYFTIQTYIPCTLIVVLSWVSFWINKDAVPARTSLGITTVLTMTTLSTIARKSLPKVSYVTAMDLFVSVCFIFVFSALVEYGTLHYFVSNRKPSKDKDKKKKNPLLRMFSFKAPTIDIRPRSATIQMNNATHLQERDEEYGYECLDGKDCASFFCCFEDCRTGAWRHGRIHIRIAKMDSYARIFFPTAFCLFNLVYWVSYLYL
Description: as §1, §2, §3, §4

PTZ-treated mice = experiment: Acute PTZ (pentylenetetrazol-induced seizure) assay in mice; format: in vivo, mouse; details: PO, latency to tonic seizures
Description: The anticonvulsant effect of test compounds were assessed in the pentylenetetazol-induced seizure assay in mice similar to methods described in Giardina & Gasior (2009) Curr Protoc Pharmacol., Chapter 5. Male CD-1 mice were housed in groups of five under controlled conditions (temperature of 22±2° C. and 12:12 light-dark cycle, lights on at 8:00 am) and water and food were available ad libitum. The mice were housed for 1 week prior to behavioral testing, at which time they weighed 25-35 g. Pentylenetetrazol (PTZ, Sigma) was dissolved in sterile 0.9% saline at a concentration of 12 mg/mL concentration for subcutaneous administration. Test compounds were formulated and administered via oral gavage or intraperitoneal injection at a predetermined time-point (typically 30 or 60 minutes) prior to PTZ injection. All solutions were made fresh and were given in a volume of 10 ml/kg body weight.
Mice were acclimated to the test room for at least 30 min before compound administration. Mice were randomized into at least four test groups (vehicle and at least three doses of the test compound) with 10 mice per group. […] Following the drug pretreatment time the mice were injected s.c. with PTZ (120 mg/kg). Immediately following the PTZ injection, mice were individually placed into observation chambers (25×15×15 cm) and a three-channel timer was started. Each mouse was continuously observed for 30 min and the following behaviors were recorded by observers blinded to the treatments: 1) latency to clonic convulsions that persist for 3 sec and followed by an absence of righting reflex 2) latency to tonic convulsions, characterized by the rigid extension of all four limbs that exceeded a 90 degree angle with the body 3) latency to death 4) number of clonic and tonic convulsions. Data are presented as mean±S.E.M and one-way analysis of variance with Dunnett's or Bonferroni's post-hoc test was used to detect significant differences in latency and number between the vehicle and dose group. p values<0.05 were regarded as statistically significant.

male Sprague Dawley rats = experiment: Loss of righting reflex in rats; format: in vivo; details: Rat IV, 5 mpk
Description: Loss of Righting Reflex in Rats
The plasma pharmacokinetics and a qualitative assessment of sedation were obtained in male
Sprague Dawley rats according to the following procedure. Rats were dosed by intravenous bolus dose (60 seconds) via the foot dorsal vein at doses ranging from 5 to 15 mg/kg in an appropriate vehicle. In order to assess sedation, rats were gently restrained by hand to a lateral position for dose administration. […] If the animal was unable to return to an upright position, the time was recorded as the onset of loss of righting reflex (LRR). […] Sluggish or incomplete righting twice consecutively within a 30 second interval qualifies as a loss of righting reflex. After onset of LRR, animals were assessed every 5 minutes in the same manner. Recovery of righting reflex is defined as the ability of a rat to right itself completely within 20 seconds of being placed in dorsal recumbency. The duration of LRR is defined as the time interval between LRR and the return of righting reflex.

C[C@@]1(O)CC[C@H]2[C@H](CC[C@@H]3[C@@H]2CC[C@]2(C)[C@@H](C(=O)Cn4cc(S(C)(=O)=O)cn4)CC[C@@H]32)C1 [SA-17]
Emax at 10 µM (GABAA receptor α4β3δ): 100 to 500% | Emax at 10 µM (GABAA receptor α1β2γ2): 100 to 500% | Anticonvulsive Effect Dose (minimal effective anticonvulsant dose) (PTZ-treated mice): A (PO) (<3 mpk)

C[C@@]1(O)CC[C@H]2[C@H](CC[C@@H]3[C@@H]2CC[C@]2(C)[C@@H](C(=O)Cn4ccc(C#N)n4)CC[C@@H]32)C1 [SA-22]
Duration of Rat LRR (male Sprague Dawley rats): B (15-60 min) | Emax at 10 µM (GABAA receptor α4β3δ): 100 to 500% | Emax at 10 µM (GABAA receptor α1β2γ2): > 500% | Anticonvulsive Effect Dose (minimal effective anticonvulsant dose) (PTZ-treated mice): A (PO) (<3 mpk)
